Laboratory results as given in ChEMBL document CHEMBL5579823, “Discovery of 7-alkoxybenzofurans as PDE4 inhibitors with hepatoprotective activity in D-GalN/LPS-induced hepatic sepsis” (Eur J Med Chem, 2024).
Calls of active or inactive are those of the source. The calls are words filed in the database; no cut-off is given here.

Experiments:
[1] = molecular target: T1, 3',5'-cyclic-AMP phosphodiesterase 4D (Homo sapiens, UniProt Q08499); assay: Inhibition of human N-terminal GST-tagged PDE4D7 (2 to 748 residues) expressed in baculovirus infected Sf9 insect cells using FAM-cyclic-3',5'-AMP as substrate measured after 1 hr by fluorescence polarization assay
T1 sequence (Q08499 whole entry, the tested form may be a part): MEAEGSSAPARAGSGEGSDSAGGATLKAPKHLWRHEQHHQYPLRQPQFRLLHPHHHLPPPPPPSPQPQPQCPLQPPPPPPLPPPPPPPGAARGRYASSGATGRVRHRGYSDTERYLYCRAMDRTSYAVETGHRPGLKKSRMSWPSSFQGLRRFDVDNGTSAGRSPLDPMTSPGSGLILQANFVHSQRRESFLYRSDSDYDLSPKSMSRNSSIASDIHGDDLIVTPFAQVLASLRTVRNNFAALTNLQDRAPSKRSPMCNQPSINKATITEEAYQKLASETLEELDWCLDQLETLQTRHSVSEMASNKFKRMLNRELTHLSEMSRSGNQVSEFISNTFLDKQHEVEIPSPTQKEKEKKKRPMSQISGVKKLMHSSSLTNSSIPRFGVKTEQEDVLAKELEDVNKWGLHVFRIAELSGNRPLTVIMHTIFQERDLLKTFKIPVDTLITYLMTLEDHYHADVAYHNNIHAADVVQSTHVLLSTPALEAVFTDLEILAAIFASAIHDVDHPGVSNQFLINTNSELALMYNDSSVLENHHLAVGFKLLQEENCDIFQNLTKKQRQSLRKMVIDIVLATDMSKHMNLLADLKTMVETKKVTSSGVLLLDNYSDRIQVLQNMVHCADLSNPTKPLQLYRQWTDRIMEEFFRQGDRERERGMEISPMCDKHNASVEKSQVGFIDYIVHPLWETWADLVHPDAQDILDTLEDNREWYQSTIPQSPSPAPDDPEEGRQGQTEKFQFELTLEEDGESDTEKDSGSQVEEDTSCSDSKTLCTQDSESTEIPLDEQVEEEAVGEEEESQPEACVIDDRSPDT

[2] = molecular target: T2, 3',5'-cyclic-AMP phosphodiesterase 4B (Homo sapiens, UniProt Q07343); assay: Inhibition of recombinant human N-terminal GST-tagged PDE4B1 (1 to 736 residues) expressed in Sf9 insect cells using FAM-cyclic-3',5'-AMP as substrate measured after 1 hr by fluorescence polarization assay
T2 sequence (Q07343 whole entry, the tested form may be a part): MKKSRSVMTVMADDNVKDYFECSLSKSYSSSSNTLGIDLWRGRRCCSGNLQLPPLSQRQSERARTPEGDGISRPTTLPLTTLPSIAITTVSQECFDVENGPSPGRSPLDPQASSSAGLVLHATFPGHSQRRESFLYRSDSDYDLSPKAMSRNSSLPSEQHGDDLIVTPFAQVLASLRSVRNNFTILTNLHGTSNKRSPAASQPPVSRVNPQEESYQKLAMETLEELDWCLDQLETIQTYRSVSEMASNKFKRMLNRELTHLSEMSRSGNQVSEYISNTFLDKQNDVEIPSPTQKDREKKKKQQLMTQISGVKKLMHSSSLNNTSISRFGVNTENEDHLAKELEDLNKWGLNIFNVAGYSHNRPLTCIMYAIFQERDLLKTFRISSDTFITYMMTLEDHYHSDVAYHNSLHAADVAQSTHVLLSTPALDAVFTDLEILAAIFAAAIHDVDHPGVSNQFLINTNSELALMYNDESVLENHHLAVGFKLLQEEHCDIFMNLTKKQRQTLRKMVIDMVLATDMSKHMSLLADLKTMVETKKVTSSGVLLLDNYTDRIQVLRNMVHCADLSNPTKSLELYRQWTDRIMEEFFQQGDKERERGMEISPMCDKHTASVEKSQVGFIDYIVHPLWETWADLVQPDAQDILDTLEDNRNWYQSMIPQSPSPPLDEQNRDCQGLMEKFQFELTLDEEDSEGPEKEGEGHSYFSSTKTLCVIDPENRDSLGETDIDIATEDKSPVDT

[3] = Oral bioavailability in mouse at 5 mg/kg by LC-MS/MS analysis; format: ADME, organism-based; settings: in vivo
[4] = molecular target: T2, 3',5'-cyclic-AMP phosphodiesterase 4B; assay: Inhibition of PDE4B1 (unknown origin)
[5] = molecular target: T1, 3',5'-cyclic-AMP phosphodiesterase 4D; assay: Inhibition of PDE4D7 (unknown origin)
[6] = Half-life in Sprague-Dawley rat at 5 mg/kg, iv by LC-MS/MS analysis; format: ADME, organism-based; settings: in vivo
[7] = molecular target: cGMP-inhibited 3',5'-cyclic phosphodiesterase 3B (Homo sapiens) (UniProt Q13370); assay: Inhibition of recombinant human N-terminal GST-tagged PDE3B (592 to 1112 residues) expressed in Sf9 insect cells at 10 uM using FAM-cyclic-3',5'-AMP as substrate measured after 1 hr by fluorescence polarization assay relative to control
cGMP-inhibited 3',5'-cyclic phosphodiesterase 3B (Homo sapiens), sequence (Q13370 whole entry, looked up, the tested form may be a part): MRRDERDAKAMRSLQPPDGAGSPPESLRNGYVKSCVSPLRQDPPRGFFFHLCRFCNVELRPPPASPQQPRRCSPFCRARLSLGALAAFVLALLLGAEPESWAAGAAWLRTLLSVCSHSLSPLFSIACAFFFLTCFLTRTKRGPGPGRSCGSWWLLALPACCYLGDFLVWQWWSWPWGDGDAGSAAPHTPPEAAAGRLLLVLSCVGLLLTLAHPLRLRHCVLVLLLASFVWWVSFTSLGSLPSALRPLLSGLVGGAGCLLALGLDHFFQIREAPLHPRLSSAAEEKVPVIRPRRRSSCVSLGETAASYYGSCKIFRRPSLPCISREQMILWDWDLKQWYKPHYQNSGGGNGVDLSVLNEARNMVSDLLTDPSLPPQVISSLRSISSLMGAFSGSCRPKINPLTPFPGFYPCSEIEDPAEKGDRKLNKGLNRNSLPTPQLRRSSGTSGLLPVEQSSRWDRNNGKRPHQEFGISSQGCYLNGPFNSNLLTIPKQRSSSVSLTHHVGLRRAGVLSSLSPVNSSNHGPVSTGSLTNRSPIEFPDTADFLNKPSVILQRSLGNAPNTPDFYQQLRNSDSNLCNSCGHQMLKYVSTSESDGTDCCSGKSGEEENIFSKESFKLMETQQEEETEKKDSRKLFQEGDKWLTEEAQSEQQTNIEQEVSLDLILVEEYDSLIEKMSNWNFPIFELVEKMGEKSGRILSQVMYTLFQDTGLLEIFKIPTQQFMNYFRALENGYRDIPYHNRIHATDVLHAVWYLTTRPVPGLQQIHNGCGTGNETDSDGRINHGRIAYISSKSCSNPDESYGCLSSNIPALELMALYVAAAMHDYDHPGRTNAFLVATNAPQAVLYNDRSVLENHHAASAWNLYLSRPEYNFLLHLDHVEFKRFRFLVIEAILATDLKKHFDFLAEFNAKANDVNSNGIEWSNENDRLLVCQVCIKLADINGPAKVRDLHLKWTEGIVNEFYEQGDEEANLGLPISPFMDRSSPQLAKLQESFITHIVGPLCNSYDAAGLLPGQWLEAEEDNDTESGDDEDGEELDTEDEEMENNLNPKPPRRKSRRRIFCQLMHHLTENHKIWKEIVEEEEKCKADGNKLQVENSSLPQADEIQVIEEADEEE

[8] = molecular target: cGMP-specific 3',5'-cyclic phosphodiesterase (Homo sapiens) (UniProt O76074); assay: Inhibition of PDE5A (unknown origin) at 10 uM using FAM-cyclic-3',5'-AMP as substrate measured after 1 hr by fluorescence polarization assay relative to control
[9] = molecular target: High affinity 3',5'-cyclic-AMP phosphodiesterase 7A (Homo sapiens) (UniProt Q13946); assay: Inhibition of PDE7A (unknown origin) at 10 uM using FAM-cyclic-3',5'-AMP as substrate measured after 1 hr by fluorescence polarization assay relative to control
High affinity 3',5'-cyclic-AMP phosphodiesterase 7A (Homo sapiens), sequence (Q13946 whole entry): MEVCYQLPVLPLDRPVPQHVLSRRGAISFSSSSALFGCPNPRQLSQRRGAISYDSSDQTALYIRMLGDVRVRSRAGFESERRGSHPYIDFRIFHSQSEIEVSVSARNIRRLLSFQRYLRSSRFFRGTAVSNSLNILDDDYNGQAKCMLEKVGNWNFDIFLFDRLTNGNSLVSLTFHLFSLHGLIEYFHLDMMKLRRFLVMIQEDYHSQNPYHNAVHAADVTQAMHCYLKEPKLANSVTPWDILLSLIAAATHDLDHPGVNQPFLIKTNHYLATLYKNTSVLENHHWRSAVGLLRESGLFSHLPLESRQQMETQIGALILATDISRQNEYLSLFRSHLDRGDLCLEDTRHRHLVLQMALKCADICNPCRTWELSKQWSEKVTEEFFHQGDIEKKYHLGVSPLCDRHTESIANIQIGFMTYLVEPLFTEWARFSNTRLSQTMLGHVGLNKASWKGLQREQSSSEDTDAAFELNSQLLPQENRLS

[10] = molecular target: High affinity cGMP-specific 3',5'-cyclic phosphodiesterase 9A (Homo sapiens) (UniProt O76083); assay: Inhibition of human N-terminal GST-tagged full-length PDE9A2 expressed in baculovirus infected Sf9 insect cells at 10 uM using FAM-cyclic-3',5'-AMP as substrate measured after 1 hr by fluorescence polarization assay relative to control
High affinity cGMP-specific 3',5'-cyclic phosphodiesterase 9A (Homo sapiens), sequence (O76083 whole entry, the tested form may be a part): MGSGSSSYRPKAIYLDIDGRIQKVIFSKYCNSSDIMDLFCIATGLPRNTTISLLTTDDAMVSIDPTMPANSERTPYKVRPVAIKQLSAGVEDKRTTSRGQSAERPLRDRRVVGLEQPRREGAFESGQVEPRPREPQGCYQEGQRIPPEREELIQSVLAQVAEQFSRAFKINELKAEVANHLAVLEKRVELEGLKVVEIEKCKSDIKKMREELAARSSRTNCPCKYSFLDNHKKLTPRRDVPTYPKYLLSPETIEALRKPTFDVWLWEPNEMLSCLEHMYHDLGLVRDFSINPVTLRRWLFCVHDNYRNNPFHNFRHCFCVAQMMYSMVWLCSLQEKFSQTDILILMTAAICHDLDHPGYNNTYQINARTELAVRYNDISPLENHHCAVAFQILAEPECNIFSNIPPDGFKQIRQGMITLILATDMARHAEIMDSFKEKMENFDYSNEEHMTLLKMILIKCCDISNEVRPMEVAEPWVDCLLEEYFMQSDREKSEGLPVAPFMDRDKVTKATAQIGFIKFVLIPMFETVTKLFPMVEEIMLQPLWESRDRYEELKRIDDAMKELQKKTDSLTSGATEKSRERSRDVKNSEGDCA

[11] = molecular target: cGMP-inhibited 3',5'-cyclic phosphodiesterase 3B (Homo sapiens) (UniProt Q13370); assay: Inhibition of recombinant human N-terminal GST-tagged PDE3B (592 to 1112 residues) expressed in Sf9 insect cells at 20 uM using FAM-cyclic-3',5'-AMP as substrate measured after 1 hr by fluorescence polarization assay relative to control
[12] = molecular target: cGMP-specific 3',5'-cyclic phosphodiesterase (Homo sapiens) (UniProt O76074); assay: Inhibition of PDE5A (unknown origin) at 20 uM using FAM-cyclic-3',5'-AMP as substrate measured after 1 hr by fluorescence polarization assay relative to control
[13] = molecular target: High affinity 3',5'-cyclic-AMP phosphodiesterase 7A (Homo sapiens) (UniProt Q13946); assay: Inhibition of PDE7A (unknown origin) at 20 uM using FAM-cyclic-3',5'-AMP as substrate measured after 1 hr by fluorescence polarization assay relative to control
[14] = molecular target: High affinity cGMP-specific 3',5'-cyclic phosphodiesterase 9A (Homo sapiens) (UniProt O76083); assay: Inhibition of human N-terminal GST-tagged full-length PDE9A2 expressed in baculovirus infected Sf9 insect cells at 20 uM using FAM-cyclic-3',5'-AMP as substrate measured after 1 hr by fluorescence polarization assay relative to control
[15] = MRT(0 to t) in Sprague-Dawley rat at 5 mg/kg, iv by LC-MS/MS analysis; format: ADME, organism-based; settings: in vivo
[16] = Cmax in Sprague-Dawley rat at 5 mg/kg, iv by LC-MS/MS analysis; format: ADME, organism-based; settings: in vivo
[17] = AUC (0 to t) in Sprague-Dawley rat at 5 mg/kg, iv by LC-MS/MS analysis; format: ADME, organism-based; settings: in vivo
[18] = AUC (0 to infinity) in Sprague-Dawley rat at 5 mg/kg, iv by LC-MS/MS analysis; format: ADME, organism-based; settings: in vivo
[19] = Clearance in Sprague-Dawley rat at 5 mg/kg, iv by LC-MS/MS analysis; format: ADME, organism-based; settings: in vivo
[20] = Volume of distribution in Sprague-Dawley rat at 5 mg/kg, iv by LC-MS/MS analysis; format: ADME, organism-based; settings: in vivo
[21] = Half-life in Sprague-Dawley rat at 5 mg/kg, po by LC-MS/MS analysis; format: ADME, organism-based; settings: in vivo
[22] = MRT(0 to t) in Sprague-Dawley rat at 5 mg/kg, po by LC-MS/MS analysis; format: ADME, organism-based; settings: in vivo
[23] = Cmax in Sprague-Dawley rat at 5 mg/kg, po by LC-MS/MS analysis; format: ADME, organism-based; settings: in vivo
[24] = Tmax in Sprague-Dawley rat at 5 mg/kg, po by LC-MS/MS analysis; format: ADME, organism-based; settings: in vivo
[25] = AUC(0 to t) in Sprague-Dawley rat at 5 mg/kg, po by LC-MS/MS analysis; format: ADME, organism-based; settings: in vivo
[26] = AUC(0 to infinity) in Sprague-Dawley rat at 5 mg/kg, po by LC-MS/MS analysis; format: ADME, organism-based; settings: in vivo
[27] = Clearance in Sprague-Dawley rat at 5 mg/kg, po by LC-MS/MS analysis; format: ADME, organism-based; settings: in vivo
[28] = Volume of distribution in Sprague-Dawley rat at 5 mg/kg, po by LC-MS/MS analysis; format: ADME, organism-based; settings: in vivo
[29] = Oral bioavailability in Sprague-Dawley rat at 5 mg/kg by LC-MS/MS analysis; format: ADME, organism-based; settings: in vivo
[30] = test system: Mus musculus; assay: (§1) Hepatoprotective activity in GalN/LPS-induced C57BL/6J mouse hepatic sepsis model assessed as reduction in necrotic morphology at 1 to 3 mg/kg, IG administered once daily for 3 days followed by GalN/LPS addition 1 hr post-last dose measured after 4 hrs by hematoxylin and eosin staining based light microscopy; format: functional, organism-based; settings: dose 1-3 mg/kg, time 3.0 day
[31] = test system: Mus musculus; assay: as §1, with “hepatomegaly” for “necrotic morphology”; format: functional, organism-based; settings: dose 1-3 mg/kg, time 3.0 day
[32] = test system: Mus musculus; assay: as §1, with “aggregation of inflammatory cells” for “necrotic morphology”; format: functional, organism-based; settings: dose 1-3 mg/kg, time 3.0 day
[33] = test system: Mus musculus; assay: Hepatoprotective activity in GalN/LPS-induced C57BL/6J mouse hepatic sepsis model assessed as reduction in ALT level at 1 to 3 mg/kg, IG administered once daily for 3 days followed by GalN/LPS addition 1 hr post-last dose measured after 4 hrs; format: functional, organism-based; settings: dose 1-3 mg/kg, time 3.0 day
[34] = test system: Mus musculus; assay: Hepatoprotective activity in GalN/LPS-induced C57BL/6J mouse hepatic sepsis model assessed as reduction in AST level at 1 to 3 mg/kg, IG administered once daily for 3 days followed by GalN/LPS addition 1 hr post-last dose measured after 4 hrs; format: functional, organism-based; settings: dose 1-3 mg/kg, time 3.0 day
[35] = molecular target: High affinity cAMP-specific 3',5'-cyclic phosphodiesterase 8A (Homo sapiens) (UniProt O60658); assay: Inhibition of human N-terminal GST-tagged full-length PDE8A1 expressed in baculovirus infected Sf9 insect cells at 10 uM using FAM-cyclic-3',5'-AMP as substrate measured after 1 hr by fluorescence polarization assay relative to control
High affinity cAMP-specific 3',5'-cyclic phosphodiesterase 8A (Homo sapiens), sequence (O60658 whole entry, looked up): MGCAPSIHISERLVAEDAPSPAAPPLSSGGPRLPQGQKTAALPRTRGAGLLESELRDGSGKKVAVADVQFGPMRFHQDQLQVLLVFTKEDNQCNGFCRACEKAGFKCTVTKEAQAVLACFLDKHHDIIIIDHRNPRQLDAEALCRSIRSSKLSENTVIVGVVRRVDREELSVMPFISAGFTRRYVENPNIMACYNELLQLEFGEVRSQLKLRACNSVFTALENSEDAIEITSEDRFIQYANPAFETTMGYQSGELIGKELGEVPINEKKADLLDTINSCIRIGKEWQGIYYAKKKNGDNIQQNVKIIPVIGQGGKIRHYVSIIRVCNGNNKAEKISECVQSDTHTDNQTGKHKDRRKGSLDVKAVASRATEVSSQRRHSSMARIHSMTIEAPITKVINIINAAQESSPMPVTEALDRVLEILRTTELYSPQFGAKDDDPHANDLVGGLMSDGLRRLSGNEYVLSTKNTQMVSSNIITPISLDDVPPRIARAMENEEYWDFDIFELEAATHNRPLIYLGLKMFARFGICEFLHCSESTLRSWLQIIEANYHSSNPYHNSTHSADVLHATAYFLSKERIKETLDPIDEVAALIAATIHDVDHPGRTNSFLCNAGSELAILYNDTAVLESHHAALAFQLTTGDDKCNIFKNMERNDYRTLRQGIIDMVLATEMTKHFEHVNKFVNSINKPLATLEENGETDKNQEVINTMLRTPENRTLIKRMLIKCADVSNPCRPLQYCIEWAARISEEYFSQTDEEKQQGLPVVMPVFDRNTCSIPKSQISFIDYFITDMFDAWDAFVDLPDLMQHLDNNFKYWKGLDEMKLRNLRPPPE

[36] = molecular target: High affinity cAMP-specific 3',5'-cyclic phosphodiesterase 8A (Homo sapiens) (UniProt O60658); assay: Inhibition of human N-terminal GST-tagged full-length PDE8A1 expressed in baculovirus infected Sf9 insect cells at 20 uM using FAM-cyclic-3',5'-AMP as substrate measured after 1 hr by fluorescence polarization assay relative to control
[37] = test system: Mus musculus; assay: Hepatoprotective activity in GalN/LPS-induced C57BL/6J mouse hepatic sepsis model at 3 mg/kg, IG administered once daily for 3 days followed by GalN/LPS addition 1 hr post-last dose measured after 4 hrs by hematoxylin and eosin staining based light microscopy; format: functional, organism-based; settings: time 3.0 day

With `CC(C)NC(=O)c1ccc(OC(F)F)c(OCC2CC2)c1` the IC50 [1] was 47 nM, the IC50 [2] was 31 nM and the bioavailability [3] was < 5%.
With `CCNc1cc(C(=O)C2CCCC2)ccc1OC` the IC50 [4] was 110 nM and the IC50 [5] was 1610 nM.
For `COc1ccc(C(=O)Cn2ccnc2)c2cc(C3CC3)oc12`, the t1/2 [6] was 1.29 h, the IC50 [2] was 10 nM and the inhibition [7] was 11%. It also gave an inhibition [8] of 9%, an inhibition [9] of 8% and an inhibition [10] of 5%. The inhibition [11] was 23%, the inhibition [12] was 17% and the inhibition [13] was 15%. The inhibition [14] was 12%, the MRT last [15] was 2.31 h and the Cmax [16] was 1740 ng/mL. For the same compound, the AUC(0-t) [17] was 5170 ng·h/mL, the AUC [18] was 5299.87 ng·h/mL and the clearance [19] was 15.8 mL/min/kg. The Vd [20] was 1.76 L/kg, the t1/2 [21] was 2 h and the MRT last [22] was 2.74 h. The Cmax [23] was 957 ng/mL, the Tmax [24] was 0.88 h and the AUC(0-t) [25] was 3440 ng·h/mL. For the same compound, the AUC [26] was 3669.79 ng·h/mL, the CL/F [27] was 22.8 mL/min/kg and the Vd [28] was 3.91 L/kg. The bioavailability [29] was 66%, the Activity [30] was “Active” and the Activity [31] was “Active”. For the same compound, the Activity [32] was “Active”, the Activity [33] was “Active” and the Activity [34] was “Active”. It also gave an inhibition [35] of 6% and an inhibition [36] of 14%.
In the case of `COc1ccc(C2CNC(=O)C2)cc1OC1CCCC1` (stereo not drawn), the Activity [37] is reported as “Active”.
